In the NIST ThermoML archive (doi:10.1016/j.jct.2019.03.012):
± gives the expanded uncertainty stated by the source.

Assays:
[1] = DSC
[2] = Molar enthalpy of transition or fusion; details: Crystal 1; DSC

Structure (SMILES): CC[NH3+].O=[N+]([O-])[O-] [ethylammonium nitrate]
- Triple point temperature ([1]; Crystal 1): 285.15 ± 6 K
- Glass transition temperature ([1]; Glass): -41.00 ± 6 °C
- Molar enthalpy of transition or fusion [2]: 3.15 ± 0.155 kcal/mol
